Source: ChEMBL document CHEMBL2169826, “Pharmacokinetic benefits of 3,4-dimethoxy substitution of a phenyl ring and design of isosteres yielding orally available cathepsin K inhibitors” (J Med Chem, 2012)
≈ marks a conversion by molar mass, not a printed value.

Experiments:
[1] = Inhibition of osteoclastogenesis in human bone marrow-derived stem cells assessed as reduction of pit formation by measuring TRACP5b activity after 7 days by bone TRAP assay; type: functional; conditions: 168 h
Cathepsin B = Cathepsin B (Homo sapiens, UniProt P07858); experiment: Inhibition of human recombinant cathepsin-B using Z-Arg-Arg-AMC as substrate preincubated for 15 mins measured after 1 hr by QFRET assay
Procathepsin L = Procathepsin L (Homo sapiens, UniProt P07711); experiment: Inhibition of human recombinant cathepsin-L using Z-Phe-Arg-AMC as substrate preincubated for 15 mins measured after 1 hr by QFRET assay
Procathepsin L, sequence (P07711 whole entry): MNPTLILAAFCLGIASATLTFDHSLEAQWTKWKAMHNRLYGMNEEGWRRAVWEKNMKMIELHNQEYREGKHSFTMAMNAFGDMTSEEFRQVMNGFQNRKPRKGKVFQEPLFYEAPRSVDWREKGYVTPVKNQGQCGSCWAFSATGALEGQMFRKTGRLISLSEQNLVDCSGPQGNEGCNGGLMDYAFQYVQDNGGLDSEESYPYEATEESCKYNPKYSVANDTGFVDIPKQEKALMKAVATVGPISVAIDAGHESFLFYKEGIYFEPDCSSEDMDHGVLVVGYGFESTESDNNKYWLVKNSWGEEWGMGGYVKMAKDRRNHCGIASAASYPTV

[2] = Metabolic stability of the compound in rat liver microsomes assessed as compound turnover after 120 mins
Cathepsin K = biological target: T1, Cathepsin K (Homo sapiens, UniProt P43235); experiment: Inhibition of human recombinant cathepsin-k using Z-Phe-Arg-AMC as substrate preincubated for 15 mins measured after 1 hr by QFRET assay
T1 sequence (P43235 whole entry): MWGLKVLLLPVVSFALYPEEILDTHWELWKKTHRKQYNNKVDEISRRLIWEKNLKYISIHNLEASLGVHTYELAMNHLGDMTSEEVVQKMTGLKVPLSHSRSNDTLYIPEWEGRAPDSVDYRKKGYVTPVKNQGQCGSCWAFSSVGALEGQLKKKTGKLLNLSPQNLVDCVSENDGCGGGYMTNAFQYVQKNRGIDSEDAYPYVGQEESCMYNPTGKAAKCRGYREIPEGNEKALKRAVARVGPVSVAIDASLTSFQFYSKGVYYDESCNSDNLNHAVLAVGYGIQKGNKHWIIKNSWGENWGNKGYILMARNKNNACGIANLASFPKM

Cathepsin S = Cathepsin S (Homo sapiens, UniProt P25774); experiment: Inhibition of human recombinant cathepsin-S using Z-Val-Val-Arg-AMC as substrate preincubated for 15 mins measured after 1 hr by QFRET assay
Cathepsin S, sequence (P25774 whole entry): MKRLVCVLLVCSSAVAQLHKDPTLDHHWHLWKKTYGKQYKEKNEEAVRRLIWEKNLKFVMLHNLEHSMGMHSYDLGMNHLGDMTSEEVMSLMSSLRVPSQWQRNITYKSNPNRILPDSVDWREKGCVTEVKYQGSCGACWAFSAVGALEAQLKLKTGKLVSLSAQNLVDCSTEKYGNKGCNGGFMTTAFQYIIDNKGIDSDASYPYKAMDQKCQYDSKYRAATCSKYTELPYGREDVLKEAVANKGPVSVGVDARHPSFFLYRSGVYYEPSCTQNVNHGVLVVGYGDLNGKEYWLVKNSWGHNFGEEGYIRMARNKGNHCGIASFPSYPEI

[3] = Metabolic stability of the compound in human liver microsomes assessed as compound turnover after 120 mins
[4] = Oral bioavailability in Alderley Park Han Wistar rat at 2 mg/kg; type: ADME, organism-based; conditions: in vivo
[5] = Percentage unbound in human plasma; type: ADME, cell-free
physchem = conditions: buffer, pH 7.4
[6] = Volume of distribution at steady state in Alderley Park Han Wistar rat at 2 mg/kg, iv and 2 mg/kg, po; type: ADME, organism-based; conditions: in vivo, read-out: Vdss
[7] = Percentage unbound in rat plasma; type: ADME, cell-free
[8] = Aqueous solubility of the compound in at pH 7.4; conditions: buffer
in vivo = conditions: Alderley Park Han Wistar, rat, plasma, iv, 2 mg/kg
in vitro = conditions: rat, hepatocytes

SMILES | IC50 [1] [nM] | IC50 (Cathepsin B) [nM] | IC50 (Procathepsin L) [nM] | microsomal CLint at 2 h [2] [µL/min/mg] | IC50 (Cathepsin K) [nM] | IC50 (Cathepsin S) [nM] | microsomal CLint at 2 h [3] [µL/min/mg] | bioavailability [4] [%] | fraction unbound [5] | logD (physchem) | Vd [6] [L/kg] | fraction unbound [7] | solubility [8] [µM] | clearance (in vivo) [mL/min/kg] | hepatocyte CLint (in vitro) [µL/min/1e6 cells]
CCCN1CCN(c2ccc(C(=O)NC3(C(=O)NCC#N)CCCCC3)cc2)CC1 [BALICATIB] | 26.6 | – | – | – | – | – | – | – | – | – | – | – | – | – | –
C[C@@H]1CN(c2ccc(S(C)(=O)=O)cc2)CCN1C(=O)[C@@H]1CCCC[C@H]1C(=O)NC1(C#N)CC1 | – | 977 | > 10000 | < 2 | 12 | 549 | 9.4 | – | – | – | – | – | – | – | –
C[C@@H]1CN(c2ccccc2)CCN1C(=O)[C@@H]1CCCC[C@H]1C(=O)NCC#N | – | 462 | > 10000 | > 347 | 6 | 1220 | 16 | – | – | – | – | – | – | – | –
C[C@H]1CN(c2ccc(S(C)(=O)=O)cc2)CCN1C(=O)[C@@H]1CCCC[C@H]1C(=O)NC1(C#N)CC1 | – | 3430 | > 10000 | < 2 | 59 | 1510 | < 2 | – | – | – | – | – | – | – | –
Cc1nnc(C)c2cc(N3CCN(C(=O)[C@@H]4CCCC[C@H]4C(=O)NC4(C#N)CC4)[C@H](C)C3)ccc12 | – | 2940 | > 10000 | – | 17 | 1750 | – | 1.4 | 0.49 | 1.9 | 4.1 | 0.62 | – | – | –
N#CCNC(=O)[C@@H]1CCCC[C@H]1C(=O)N1CCN(c2ccc(C#N)cc2)CC1 | – | – | > 10000 | – | 25 | 2600 | – | – | 0.53 | 1.8 | – | – | – | – | –
COc1cccc2c3c([nH]c12)CCN(C(=O)[C@@H]1CCCC[C@H]1C(=O)NC1(C#N)CC1)C3 | 32 | – | – | – | – | – | – | – | – | – | – | – | – | – | –
C[C@@H]1CN(c2ccccc2)CCN1C(=O)[C@@H]1CCCC[C@H]1C(=O)NC1(C#N)CC1 | – | 649 | > 10000 | > 347 | 11 | 1300 | 20 | – | – | 2.4 | – | – | – | – | –
COc1ccc(N2CCN(C(=O)[C@@H]3CCCC[C@H]3C(=O)NCC#N)CC2)cc1 | – | 399 | > 10000 | 77 | 6 | 1050 | 7.1 | – | > 0.5 | 1.6 | – | – | 390 (≈ 150 µg/mL) | – | –
COc1ccc(N2CCN(C(=O)[C@@H]3CCCC[C@H]3C(=O)NC3(C#N)CC3)[C@H](C)C2)nc1OC | – | 1690 | > 10000 | 13 | 5 | 1100 | 4.2 | 55 | 0.24 | 2.3 | 0.7 | 0.41 | > 1700 | 15 | < 2
CC1CN(c2ccc(S(C)(=O)=O)cc2)C(C)CN1C(=O)[C@@H]1CCCC[C@H]1C(=O)NC1(C#N)CC1 (stereo not given in full) | – | 40000 | > 10000 | 4.3 | 312 | > 7430 | < 2 | – | – | – | – | – | – | – | –
COc1cccc(N2CCN(C(=O)[C@@H]3CCCC[C@H]3C(=O)NCC#N)CC2)c1 | – | – | > 10000 | 149 | 8 | – | 5.6 | – | – | – | – | – | – | – | –
CC1(C)CN(c2ccc(S(C)(=O)=O)cc2)CCN1C(=O)[C@@H]1CCCC[C@H]1C(=O)NC1(C#N)CC1 | – | 3510 | > 10000 | 4.9 | 45 | 3750 | < 2 | – | – | – | – | – | – | – | –
C[C@@H]1CN(c2ccc3c(c2)OCO3)CCN1C(=O)[C@@H]1CCCC[C@H]1C(=O)NC1(C#N)CC1 | – | 645 | > 10000 | 83 | 9 | 1150 | 8.8 | – | – | – | – | – | – | – | –
COc1ccc(N2CCN(C(=O)[C@@H]3CCCC[C@H]3C(=O)NC3(C#N)CC3)CC2)cc1 | – | 1440 | > 10000 | 48 | 14 | – | < 2 | 3.5 | 0.46 | 1.7 | 1.1 | 0.25 | > 2000 | > 73 | 42
N#CC1(NC(=O)[C@@H]2CCCC[C@H]2C(=O)N2CCN(c3ccccc3)CC2)CC1 | – | 1440 | > 10000 | 107 | 15 | 2260 | 6.9 | 0.2 | > 0.28 | – | 1.1 | 0.28 | – | 19 | 36
CS(=O)(=O)c1ccc(N2CCN(C(=O)[C@@H]3CCCC[C@H]3C(=O)NC3(C#N)CC3)CC2)cc1 | – | 2400 | > 10000 | < 2.2 | 18 | 2150 | < 2 | 16 | > 0.5 | – | – | – | 2500 (≈ 1150 µg/mL) | 22 | –
C[C@@H]1CN(c2ccc(S(C)(=O)=O)cc2)C[C@H](C)N1C(=O)[C@@H]1CCCC[C@H]1C(=O)NC1(C#N)CC1 | – | 24900 | > 10000 | < 2 | 211 | > 11800 | < 2 | – | – | – | – | – | – | – | –
CS(=O)(=O)c1ccc(N2CCN(C(=O)[C@@H]3CCCC[C@H]3C(=O)NCC#N)CC2)cc1 | – | 1180 | > 10000 | < 5.3 | 11 | 1290 | < 2 | – | > 0.5 | 0.67 | – | – | 280 (≈ 121 µg/mL) | – | –
N#CCNC(=O)[C@@H]1CCCC[C@H]1C(=O)N1CCN(c2ccccc2)CC1 | – | – | > 10000 | – | – | – | – | – | > 0.5 | – | – | – | – | – | –
N#CCNC(=O)[C@@H]1CCCC[C@H]1C(=O)N1CCN(c2ccc(F)cc2)CC1 | – | 315 | > 10000 | 31 | 23 | 1680 | < 2.9 | – | 0.39 | 1.9 | – | – | > 3700 | – | –
Cc1nn(C)c2ccc(N3CCN(C(=O)[C@@H]4CCCC[C@H]4C(=O)NC4(C#N)CC4)[C@H](C)C3)cc12 | – | 971 | > 10000 | – | 9 | 1230 | – | 64 | 0.25 | 2.8 | 2.5 | 0.27 | > 1400 | – | –
Cc1ccc(N2CCN(C(=O)[C@@H]3CCCC[C@H]3C(=O)NCC#N)CC2)cc1 | – | 572 | > 10000 | – | 11 | – | – | – | – | – | – | – | – | – | –
